In PubChem BioAssay (NCI) one finds TGI data, which are given here for twelve molecules.

Test systems include IGROV1 ovarian; HCC-2998 colon; OVCAR-8 ovarian; K-562 leukemia; MDA-N; NCI-H226 lung; HCT-116 colon; HOP-62 NSCLC; MCF7 breast; MDA-MB-231 breast; RXF 393 renal.
What all share (test): NCI tumour cell line growth inhibition, 48 h

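Briefly, cells in 96-well plates were exposed to five compound concentrations for 48 h, and endpoints were estimated by linear interpolation. TGI marks complete inhibition of growth.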

Take `CCOC(=O)COC1=Nc2cc(OC)c(OC)c3nc(Cl)cc(c23)C1=O`: the TGI in the assay with IGROV1 ovarian was 5.97 µM; in the assay on HCC-2998 colon it was 10.5 µM; in the assay with OVCAR-8 ovarian, 9.8 µM; with K-562 leukemia, 7.2 µM; with MDA-N, 2.63 µM; with NCI-H226 lung it was 28.6 µM. Also, the TGI in the assay with HCT-116 colon stood at 3.1 µM; with HOP-62 NSCLC, 7.97 µM; in the assay with MCF7 breast it was 3.46 µM; in the assay with MDA-MB-231 breast, 3.28 µM; with RXF 393 renal, 3.34 µM.

`O=C1CCc2cc3c(cc21)C(C(=O)O)CC3` (configuration not stated): the TGI with IGROV1 ovarian, in the assay on HCC-2998 colon, with OVCAR-8 ovarian, in the assay with K-562 leukemia, with MDA-N and in the assay with NCI-H226 lung was above 100 µM each time. In addition, the TGI in the assay on HCT-116 colon, in the assay on HOP-62 NSCLC, with MCF7 breast, in the assay with MDA-MB-231 breast and with RXF 393 renal was above 100 µM in each case.

On to `O=c1cnc2cc3ccccc3cc2[nH]1`, for which the TGI with IGROV1 ovarian, in the assay with HCC-2998 colon, in the assay with OVCAR-8 ovarian, with K-562 leukemia, with MDA-N and with NCI-H226 lung was above 100 µM throughout. In addition, the TGI in the assay with HCT-116 colon, in the assay on HOP-62 NSCLC, in the assay on MCF7 breast, in the assay on MDA-MB-231 breast and in the assay on RXF 393 renal was above 100 µM each time.

As to `O=C1/C(=C/c2cccs2)N=C(c2ccccc2)N1c1nc2ccccc2s1`, the TGI in the assay with IGROV1 ovarian, in the assay with HCC-2998 colon, in the assay on OVCAR-8 ovarian, with K-562 leukemia, with MDA-N and with NCI-H226 lung was above 100 µM in each case. The TGI in the assay on HCT-116 colon was above 100 µM; in the assay on HOP-62 NSCLC, above 100 µM; in the assay on MCF7 breast, above 100 µM; with MDA-MB-231 breast it was above 100 µM; with RXF 393 renal, 90.7 µM.

For `COC(C[C@H]1CCCC[C@]1(O)/C(=C\CO[Si](C(C)C)(C(C)C)C(C)C)Sc1ccccc1)OC`, the TGI is above 100 µM with IGROV1 ovarian; 34.2 µM in the assay with HCC-2998 colon; above 100 µM in the assay with OVCAR-8 ovarian; above 100 µM in the assay with K-562 leukemia; above 100 µM in the assay with MDA-N; 62.4 µM with NCI-H226 lung. The TGI with HCT-116 colon is 85.1 µM; with HOP-62 NSCLC it was above 100 µM; in the assay on MCF7 breast, above 100 µM; in the assay on MDA-MB-231 breast, 49.8 µM; with RXF 393 renal, 55.3 µM.

For `COc1ccc(C(=O)/C=C/c2ccc(OCCCOc3ccc(/C=C/C(=O)c4ccc(OC)c(OC)c4)cc3)cc2)cc1OC`, the TGI in the assay with IGROV1 ovarian, with HCC-2998 colon, with OVCAR-8 ovarian, in the assay on K-562 leukemia, with MDA-N and in the assay on NCI-H226 lung was above 100 µM in each case. Moreover, the TGI in the assay on HCT-116 colon, in the assay on HOP-62 NSCLC, with MCF7 breast, in the assay with MDA-MB-231 breast and with RXF 393 renal was above 100 µM each time.

On to `CN(c1ccc(Cl)cc1)S(=O)(=O)c1ccccc1`, for which the TGI with IGROV1 ovarian, in the assay on HCC-2998 colon, in the assay on OVCAR-8 ovarian, with K-562 leukemia, in the assay with MDA-N and in the assay on NCI-H226 lung was above 100 µM each time. Also, the TGI in the assay with HCT-116 colon was above 100 µM; in the assay with HOP-62 NSCLC, above 100 µM; with MCF7 breast it was above 100 µM; in the assay with MDA-MB-231 breast, above 100 µM; in the assay on RXF 393 renal, 62.3 µM.

As for `COC(CC1(CCNc2ccccc2)C(=O)N(COCC[Si](C)(C)C)c2ccccc21)OC` (configuration not stated), the TGI was 21.4 µM with IGROV1 ovarian; 4.12 µM in the assay on HCC-2998 colon; 35.1 µM with OVCAR-8 ovarian; above 100 µM in the assay with K-562 leukemia; above 68.2 µM in the assay with MDA-N; 21.4 µM in the assay on NCI-H226 lung. Further, the TGI with HCT-116 colon worked out at 32.5 µM; in the assay on HOP-62 NSCLC, 28 µM; in the assay with MCF7 breast it was 30.4 µM; with MDA-MB-231 breast it was 48.4 µM; in the assay with RXF 393 renal, 29.4 µM.

As to `O=C1Sc2cc3ccccc3cc2C(=O)Sc2cc3ccccc3cc21`, the TGI was above 100 µM in the assay with IGROV1 ovarian; 58.7 µM in the assay with HCC-2998 colon; above 89.2 µM in the assay with OVCAR-8 ovarian; above 100 µM in the assay with K-562 leukemia; above 100 µM in the assay on MDA-N; above 100 µM with NCI-H226 lung. The TGI was 38.5 µM in the assay with HCT-116 colon; above 85.2 µM in the assay with HOP-62 NSCLC; above 100 µM with MCF7 breast; above 100 µM with MDA-MB-231 breast; 35.7 µM in the assay with RXF 393 renal.

Regarding `Cc1cn([C@@H]2C[C@](C)(CO)N(C)O2)c(=O)[nH]c1=O`, the TGI in the assay on IGROV1 ovarian, in the assay on HCC-2998 colon, in the assay with OVCAR-8 ovarian, in the assay with K-562 leukemia, in the assay with MDA-N and in the assay with NCI-H226 lung was above 100 µM throughout. For the same molecule, the TGI in the assay with HCT-116 colon, with HOP-62 NSCLC, in the assay with MCF7 breast, in the assay on MDA-MB-231 breast and in the assay with RXF 393 renal was above 100 µM in each case.

Regarding `COc1cccc(OC/C(N=Cc2ccncc2)=N/NC(=O)c2ccncc2)c1`, the TGI in the assay with IGROV1 ovarian, with HCC-2998 colon, in the assay on OVCAR-8 ovarian, in the assay with K-562 leukemia, with MDA-N and in the assay with NCI-H226 lung was above 100 µM in each case. Further, the TGI with HCT-116 colon, in the assay on HOP-62 NSCLC, with MCF7 breast, in the assay with MDA-MB-231 breast and with RXF 393 renal was above 100 µM throughout.

As to `CCCOC1OC(CS(=O)(=O)O)C(OC(C)=O)C(OC(C)=O)C1OC(C)=O` (configuration not stated), the TGI with IGROV1 ovarian, in the assay with HCC-2998 colon, in the assay with OVCAR-8 ovarian, with K-562 leukemia, in the assay with MDA-N and in the assay on NCI-H226 lung was above 100 µM each time. The TGI in the assay with HCT-116 colon, in the assay with HOP-62 NSCLC, in the assay with MCF7 breast, in the assay on MDA-MB-231 breast and in the assay on RXF 393 renal was above 100 µM throughout.
